Results from patent publication US20070259439A1, “Determination of antibiotic concentration in bone” (Wyeth, priority 2006, published 2007).
“And” between values parts separate entries of the source, which are not always exact repeats. Equal values may be shown once. Marks after values point to notes of the source that are not given here.

Key:
[1] = Stability of tigecycline in incurred rat bone and in extracted rat bone sample; type: physicochemical
Experimental: (§1) Stability tests for tigecycline in IncRB reference QC samples or incHB QC samples were conducted in 4 cycles of freeze/thaw for IncRB QC and (3 cycles for IncHB QC of −70° C./22° C.) and in standard bench top (22° C.) stability (4 hours for rat bone and 6 hours for human bone) tests. These tests occurred during sequential extraction from run 1 through run 3. Bench top stability of IncRB reference QC samples (4 hours at room temperature) and incurred human bone sample (6 hours at room temperature), and extracted tigecycline from the IncRB and incurred human reference QC samples in the autosampler at 4° C. were evaluated during the method validation. Autosampler stability of tigecycline in IncRB Group B sample (^14C) was employed as the sample pool because aliquots from IncRB Group A were exhausted from prior testing. Results were plotted as the peak area ratio against time. The 54-hour autosampler stability of incurred human bone was performed by comparing extracted samples injected immediate after extraction (baseline) with the same set of extracted samples re-injected after 54 hours of storage at 4° C., regressed with a standard curve injected immediately after extraction (baseline).

[2] = Antibiotic bone assay (LC/MS/MS): tigecycline concentration in incurred human bone; type: in vivo
Experimental: Incurred Human Bone: Incurred human bone samples were from Wyeth 3074A1-117-US clinical study. Human bone samples were from the collection of patients who received Tygacil treatment and had bone replacement surgery in 2004. All bone samples were stored at −70° C.
Preparation of incurred human bone sample (incHB) QC sample: Collected large pieces of bone (5-50 g per piece) were immersed in liquid nitrogen in a double thickness 7″×8″ Bitran S series specimen bag and the bone sample was broken into 10 mm or smaller pieces using a steel hammer on a high density polyethylene dissecting borad (11″×13″). The bone pieces were then broken into smaller (approximately 5 mm or less) pieces using a large ceramic mortar and pestle. […]
Calibrators, quality control (QC) samples, and IncRB QC sample (an incurred rat bone sample used as a QC and evaluated multiple times) were prepared as described below. Due to high concentration of oxidant(s) in human bone (incurred and control bone), which can destroy tigecycline before it can be detected after extraction, preparation of calibrators, QCs and incurred samples for human bone require addition of 120 μL of 100 mM L-ascorbic acid solution to the samples (0.1 g) and incubation for 5 minutes at room temperature before adding extraction solvent. […]

[3] = 54-hour autosampler stability of extracted tigecycline from incurred human bone with ascorbic acid; type: physicochemical; details: ascorbic acid added
Experimental: as §1

in vivo = details: rat
Experimental: Absolute extraction recovery (AbsER): Bone is a heterogeneous tissue and, unlike with a plasma or urine method validation, the extraction recovery cannot be determined with a drug spiked rat bone QC sample. Therefore, it is necessary to measure a virtual known amount of drug in an incurred rat bone sample to determine the absolute extraction recovery. Using combusted IncRB samples from Group B (rats administered radio labeled ^14C-tigecycline), the amount of labeled drug in bone was measured using a liquid scintillation counter. Four aliquots of IncRB Group B (0.1 grams) were accurately weighed, placed into combustion cones, and allowed to air dry for approximately 3 days. These 4 samples were then oxidized in a Model 307/Oximate 80 sample oxidizer, using Carbosorb® E (7 ml) as a trapping agent and PermalFluor® ET (10 ml) as a scintillant. […] The oxidized samples were counted in a Packard (Perkin Elmer) liquid scintillation counter (LSC) using a toluene standard curve. The ng-equiv/ml concentrations were calculated using specific activity of the dosing solution.
In parallel, five aliquots of IncRB Group B (0.1 gram) were weighed. […]
The absolute extraction recovery was determined using the following equation: […]
[total amount of tigecycline per gram of bone (Group B, determined by LC/MS/MS)]/[total amount of tigecycline per gram of bone (Group B, after combustion as determined by LSC)]×100

Structure (SMILES): CN(C)c1cc(NC(=O)CNC(C)(C)C)c(O)c2c1C[C@H]1C[C@H]3[C@H](N(C)C)C(O)=C(C(N)=O)C(=O)[C@@]3(O)C(O)=C1C2=O [tigecycline, Tigecycline]
- Freeze/thaw stability in incurred rat bone ([1]; after 4 cycles of freeze/thaw (−70° C./22° C.)): stable
- Bench top stability in incurred rat bone ([1]; after 4 hours at room temperature): stable
- Stability of extracted tigecycline from IncRB samples ([1]; extracted sample at 4° C., no stabilizing agent): 8.5 h
- Storage stability in incurred rat bone ([1]; stored at −70° C.): at least 5 months
- Re-injection stability of extracted tigecycline ([1]; within 5 hours, no stabilizing agent): 5 re-injections
- Tigecycline concentration in incurred human bone samples ([2]; 24 individual samples, study 3074A1-117-US, stored approximately twenty-one months at −70° C.): 492 ng/g (2×) and 550 ng/g and 665 ng/g and 431 ng/g and 628 ng/g and 269 ng/g and 290 ng/g and 335 ng/g and 238 ng/g and 240 ng/g and 433 ng/g and 560 ng/g and 362 ng/g and 491 ng/g and 595 ng/g and 258 ng/g and 323 ng/g and 421 ng/g and 411 ng/g and 626 ng/g and 281 ng/g and 439 ng/g and 794 ng/g
- Inc HB QC sample concentration (incurred human bone) ([2]; patients who received Tygacil, nominal value = mean of 3-day global inter-day validation (n = 15)): 257 ng/g and 257^a ng/g
- % Difference (54 hours vs initial) ([3]; 54 hours at 4° C.): −0.7%
- Initial Concentration immediately after extraction (replicates) ([3]; incurred human bone): 261 and 258 and 270 and 269 and 218
- Re-injected sample concentration after 54-hour at 4° C. (replicates) ([3]; incurred human bone): 288 and 250 and 227 and 277 and 223
- Initial Concentration immediately after extraction, Mean ([3]; n = 5, incurred human bone): 255
- Re-injected sample concentration after 54-hour at 4° C., Mean ([3]; n = 5, incurred human bone): 253
- concentration at 4 h (in vivo): 3190 ng/g
- Measured conc. (in vivo; 4 h): 4137^a ng-equivalent/g of bone
